Read-outs that look alike come from different tables or passages of the source.
What was measured:
Assay type in all cases: biochemical
[1] = target: CDK2/Cyclin-A kinase complex (Homo sapiens, UniProt P24941); assay: CDK2 IMAP fluorescence polarization assay
In short: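 Fluorescence polarization (IMAP) using purified active CDK2/Cyclin-A complex with a TAMRA-tagged Histone H1-derived peptide substrate; phosphorylated peptide bound by a metal-containing reagent raises polarization. Inhibition read as reduced fluorescence polarization signal.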

[2] = target: CDK4/Cyclin-D1 kinase complex (Homo sapiens, UniProt P11802); assay: CDK4 ELISA based assay, Rb Ser780 phosphorylation
Description: The compounds that inhibit the CDK4 kinase activity would inhibit the signal output of the assay.

hCDK1/B = hCDK1/B (Homo sapiens, UniProt P06493); assay: hCDK1/B assay; settings: Table E; read-out: hCDK1/B/IC50 [umol l − 1]
CDK4 = CDK4 (Homo sapiens, UniProt P11802); assay: CDK4 HTRF assay; settings: Table E; read-out: CDK4 HTRF/IC50 [umol l − 1]
[3] = Table E, read-out: CDK2cyA IMAP/IC50 [umol l − 1]
[4] = Table E, read-out: CDK4 ELISA assay IC50 [umol l−]

Sequence of CDK4 (P11802 whole entry): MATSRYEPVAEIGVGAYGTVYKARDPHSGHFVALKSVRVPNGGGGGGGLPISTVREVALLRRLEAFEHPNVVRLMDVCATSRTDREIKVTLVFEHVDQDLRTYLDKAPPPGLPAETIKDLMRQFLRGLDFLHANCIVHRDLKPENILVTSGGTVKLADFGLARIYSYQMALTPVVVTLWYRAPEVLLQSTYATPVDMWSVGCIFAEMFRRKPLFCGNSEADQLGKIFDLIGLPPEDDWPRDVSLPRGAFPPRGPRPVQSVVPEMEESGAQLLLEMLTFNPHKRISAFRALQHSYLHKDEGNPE
Sequence of CDK4 (P24385 whole entry partner): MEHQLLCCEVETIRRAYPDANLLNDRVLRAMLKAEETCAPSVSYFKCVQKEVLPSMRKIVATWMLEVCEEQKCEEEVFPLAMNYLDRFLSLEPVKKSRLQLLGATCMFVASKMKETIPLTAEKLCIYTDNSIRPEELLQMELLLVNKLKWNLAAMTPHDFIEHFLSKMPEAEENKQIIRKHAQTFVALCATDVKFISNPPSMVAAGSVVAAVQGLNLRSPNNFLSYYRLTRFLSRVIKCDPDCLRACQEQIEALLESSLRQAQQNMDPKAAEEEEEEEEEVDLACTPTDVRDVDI
Sequence of CDK4/Cyclin-D1 kinase complex (P11802 whole entry): as the sequence (P11802 whole entry) above
Sequence of CDK4/Cyclin-D1 kinase complex (P24385 whole entry partner): as the sequence (P24385 whole entry partner) above
Sequence of hCDK1/B (P06493 whole entry): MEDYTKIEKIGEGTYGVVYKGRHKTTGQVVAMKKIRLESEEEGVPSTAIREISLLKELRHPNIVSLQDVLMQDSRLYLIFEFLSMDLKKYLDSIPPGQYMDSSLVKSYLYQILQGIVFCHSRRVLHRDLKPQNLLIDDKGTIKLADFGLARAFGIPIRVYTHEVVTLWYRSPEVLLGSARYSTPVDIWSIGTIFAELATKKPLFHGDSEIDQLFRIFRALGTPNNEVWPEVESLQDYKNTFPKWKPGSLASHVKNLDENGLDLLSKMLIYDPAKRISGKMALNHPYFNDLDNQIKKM
Sequence of hCDK1/B (P14635 whole entry partner): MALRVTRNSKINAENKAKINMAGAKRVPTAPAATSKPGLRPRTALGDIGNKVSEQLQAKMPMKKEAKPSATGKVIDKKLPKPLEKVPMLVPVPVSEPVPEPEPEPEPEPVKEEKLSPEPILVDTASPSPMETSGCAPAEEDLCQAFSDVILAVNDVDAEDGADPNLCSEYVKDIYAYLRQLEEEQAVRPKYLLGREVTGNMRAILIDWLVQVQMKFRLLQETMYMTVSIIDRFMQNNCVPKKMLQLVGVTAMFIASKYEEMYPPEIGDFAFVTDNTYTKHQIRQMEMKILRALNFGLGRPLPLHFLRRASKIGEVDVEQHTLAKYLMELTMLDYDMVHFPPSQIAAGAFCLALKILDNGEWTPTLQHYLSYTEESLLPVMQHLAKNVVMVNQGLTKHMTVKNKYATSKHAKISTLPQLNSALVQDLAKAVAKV

## CCC(CC)N1C(=O)Cc2cnc(Nc3ccc(N4CCNCC4)cn3)nc21
[1]; Table C, read-out: CDK2 IC50
  IC50: < 10 µM
[2]; Table C, read-out: CDK4 IC50
  IC50: > 10 µM

## CCC(CC)N1C(=O)Cc2cnc(Nc3ccc(N4CCNCC4)cc3)nc21
[2]; Table C, read-out: CDK4 IC50
  IC50: < 10 µM

## CCC(CC)N1C(=O)C(C)(C)c2cnc(Nc3ccc(N4CCN(C(C)=O)CC4)cn3)nc21
[1]; Table C, read-out: CDK2 IC50
  IC50: > 10 µM
[2]; Table C, read-out: CDK4 IC50
  IC50: > 10 µM

## CCC(CC)N1C(=O)C(C)(C)c2cnc(Nc3ccc(N4CCNCC4)cn3)nc21
[1]; Table C, read-out: CDK2 IC50
  IC50: > 10 µM
[2]; Table C, read-out: CDK4 IC50
  IC50: < 10 µM

## CCC(CC)N1C(=O)C(C)(C)c2cnc(Nc3ccc(N4CCN(C(=O)OC(C)(C)C)CC4)cc3)nc21
[2]; Table C, read-out: CDK4 IC50
  IC50: > 10 µM

## CC1(C)C(=O)N(C2CCCC2)c2nc(Nc3ccc(N4CCNCC4)cn3)ncc21
[2]; Table C, read-out: CDK4 IC50
  IC50: < 10 µM

## CCC(CC)n1ccc2cnc(Nc3ccc(N4CCN(C(C)=O)CC4)cn3)nc21 [Example 206]
[1]; [3]
  IC50: > 10 µM
[2]; [4]
  IC50: > 10 µM

## CCC(CC)n1ccc2cnc(Nc3ccc(N4CCN(C)CC4)cn3)nc21 [Example 207]
[1]; [3]
  IC50: > 10 µM
[2]; [4]
  IC50: < 10 µM

## CCC(CC)n1ccc2cnc(Nc3ccc(N4CCN(C)CC4)c(F)c3)nc21 [Example 208]
[1]; [3]
  IC50: < 10 µM
[2]; [4]
  IC50: < 10 µM

## CCC(CC)n1ccc2cnc(NC3CCCC3)nc21 [Example 210]
[2]; [4]
  IC50: > 10 µM

## CCC(CC)n1ccc2cnc(Nc3ccc(C4CCCNC4)cc3)nc21 (stereo not shown) [Example 211]
[1]; [3]
  IC50: < 10 µM
[2]; [4]
  IC50: < 10 µM

## CCC(CC)n1ccc2cnc(Nc3ccc(C(=O)N4CCOCC4)cc3)nc21 [Example 212]
[1]; [3]
  IC50: < 1 µM
[2]; [4]
  IC50: < 10 µM

## CCC(CC)n1ccc2cnc(Nc3cccc(OCCn4ccnc4)c3)nc21 [Example 213]
[1]; [3]
  IC50: < 1 µM
[2]; [4]
  IC50: < 10 µM

## CCC(CC)n1ccc2cnc(Nc3ccc(C4CCN(C(C)=O)CC4)cc3)nc21 [Example 214]
[1]; [3]
  IC50: > 10 µM
[2]; [4]
  IC50: < 10 µM

## CCC(CC)n1ccc2cnc(Nc3ccc(C4CCCN(C(=O)CC#N)C4)cc3)nc21 (stereo not shown) [Example 215]
[2]; [4]
  IC50: > 10 µM

## CCC(CC)n1ccc2cnc(Nc3ccc(C4CCCN(C(C)=O)C4)cc3)nc21 (stereo not shown) [Example 216]
[1]; [3]
  IC50: < 10 µM
[2]; [4]
  IC50: < 10 µM

## CCC(CC)n1ccc2cnc(Nc3ccc(C(=O)NC4CCCC4)cc3)nc21 [Example 217]
[2]; [4]
  IC50: > 10 µM

## CCC(CC)n1ccc2cnc(NC3CC3)nc21 [Example 218]
[2]; [4]
  IC50: > 10 µM

## CN1CCN(c2ccc(Nc3ncc4ccn(C5CCCC5)c4n3)nc2)CC1 [Example 255]
[1]; [3]
  IC50: > 10 µM
[2]; [4]
  IC50: > 10 µM

## c1cc2cn[nH]c2cc1Nc1ncc2ccn(C3CCCC3)c2n1 [Example 257]
[1]; [3]
  IC50: < 10 µM
[2]; [4]
  IC50: < 10 µM

## CCC(CC)n1cc(C)c2cnc(Nc3ccc(N4CCN(C(C)=O)CC4)cc3)nc21 [Example 263, 1-(4-{4-[7-(1-Ethyl-propyl)-5-methyl-7H-pyrrolo[2,3-d]pyrimidin-2-ylamino]-phenyl}-piperazin-1-yl)-ethanone]
[1]; [3]
  IC50: > 10 µM
[2]; [4]
  IC50: > 10 µM

## CCC(CC)n1cc(C)c2cnc(Nc3ccc(N4CCN(C)CC4)cc3)nc21 [Example 264]
[1]; [3]
  IC50: > 10 µM
[2]; [4]
  IC50: > 10 µM

## Cc1cn(C2CCCCC2)c2nc(Nc3ccc(N4CCN(C)CC4)cc3)ncc12 [Example 269]
[1]; [3]
  IC50: > 10 µM
[2]; [4]
  IC50: < 10 µM

## CCC(CC)n1cc(C)c2cnc(Nc3ccc(C(=O)NC4CCCC4)cc3)nc21 [Example 319]
[2]; [4]
  IC50: > 10 µM

## CCC(CC)n1c(C)cc2cnc(Nc3ccc(N4CCNCC4)cc3)nc21 [Example 329, [7-(1-Ethyl-propyl)-6-methyl-7H-pyrrolo[2,3-d]pyrimidin-2-yl]-(4-piperazin-1-yl-phenyl)-amine]
[1]; [3]
  IC50: < 1 µM
[2]; [4]
  IC50: > 10 µM

## CCC(CC)n1c(C)cc2cnc(Nc3ccc(N4CCN(C(C)=O)CC4)cc3)nc21 [Example 330]
[1]; [3]
  IC50: < 1 µM
[2]; [4]
  IC50: > 10 µM

## CCC(CC)n1c(C)cc2cnc(Nc3ccc(C(=O)NC4CCCC4)cc3)nc21 [Example 331]
[1]; [3]
  IC50: < 1 µM
[2]; [4]
  IC50: > 10 µM

## CCOC(OCC)c1cc2cnc(Nc3ccc(N4CCN(C(C)=O)CC4)cc3)nc2n1C(CC)CC [Example 360, 1-(4-{4-[6-Diethoxymethyl-7-(1-ethyl-propyl)-7H-pyrrolo[2,3-d]pyrimidin-2-ylamino]-phenyl}-piperazin-1-yl)-ethanone]
[1]; [3]
  IC50: > 10 µM
[2]; [4]
  IC50: > 10 µM

## CCC(CC)n1c(CO)cc2cnc(Nc3ccc(N4CCN(C(C)=O)CC4)cc3)nc21 [Example 362, 1-(4-{4-[7-(1-Ethyl-propyl)-6-hydroxymethyl-7H-pyrrolo[2,3-d]pyrimidin-2-ylamino]-phenyl}-piperazin-1-yl)-ethanone]
[1]; [3]
  IC50: < 1 µM
[2]; [4]
  IC50: > 10 µM

## CCC(CC)n1c(COC)cc2cnc(Nc3ccc(C(=O)NC4CCCC4)cc3)nc21 [Example 380]
[2]; [4]
  IC50: > 10 µM

## Cc1c(C#N)n(C2CCCC2)c2nc(Nc3ccc(N4CCC(N(C)C)CC4)cc3)ncc12 [Example 395]
hCDK1/B
  IC50: < 1 µM
[1]; [3]
  IC50: < 1 µM
CDK4
  IC50: < 1 µM

## CCC(C)n1c(C#N)c(C)c2cnc(Nc3ccc(N4CCC(N(C)C)CC4)cc3)nc21 (stereo not shown) [Example 396]
hCDK1/B
  IC50: < 1 µM
[1]; [3]
  IC50: < 1 µM
CDK4
  IC50: < 1 µM

## Cc1c(-c2cnco2)n(C2CCCC2)c2nc(Nc3ccc(N4CCNCC4)cc3)ncc12 [Example 398]
hCDK1/B
  IC50: < 1 µM
[1]; [3]
  IC50: < 1 µM
CDK4
  IC50: < 1 µM

## Cc1c(-c2cnco2)n(C2CCCCCC2)c2nc(Nc3ccc(N4CCNCC4)cn3)ncc12 [Example 400]
hCDK1/B
  IC50: < 1 µM
[1]; [3]
  IC50: < 1 µM
CDK4
  IC50: < 1 µM

## Cc1c(-c2cnco2)n(C2CCCC2)c2nc(Nc3ccc(CN4CCOCC4)cc3)ncc12 [Example 401]
hCDK1/B
  IC50: < 1 µM
[1]; [3]
  IC50: < 1 µM
CDK4
  IC50: < 1 µM

## Cc1c(-c2cnco2)n(C2CCCC2)c2nc(Nc3ccc(CN4CCNCC4)cc3)ncc12 [Example 402]
hCDK1/B
  IC50: < 1 µM
[1]; [3]
  IC50: < 1 µM
CDK4
  IC50: < 1 µM

## Cc1c(-c2cnco2)n(C2CCCC2)c2nc(Nc3ccc(CN4CCNCC4)cn3)ncc12 [Example 403]
hCDK1/B
  IC50: < 10 µM
[1]; [3]
  IC50: < 10 µM
CDK4
  IC50: < 1 µM

## Cc1n[nH]c(-c2c(C)c3cnc(Nc4ccc(N5CCNCC5)cn4)nc3n2C2CCCC2)n1 [Example 406]
hCDK1/B
  IC50: > 10 µM
[1]; [3]
  IC50: > 10 µM
CDK4
  IC50: < 1 µM

## Cc1noc(-c2c(C)c3cnc(Nc4ccc(N5CCNCC5)cn4)nc3n2C2CCCC2)n1 [Example 407]
hCDK1/B
  IC50: < 10 µM
[1]; [3]
  IC50: < 10 µM
CDK4
  IC50: < 1 µM

## CCC(CC)n1cc(C(=O)OC)c2cnc(Nc3ccc(N4CCN(C(C)=O)CC4)cc3)nc21 [Example 428]
[2]; [4]
  IC50: > 10 µM

## CCC(CC)n1cc(C(=O)OC)c2cnc(Nc3ccc(N4CCNCC4)cc3)nc21 [Example 429]
[2]; [4]
  IC50: > 10 µM

## CCN(CC)c1ccc(Nc2ncc3c(C)cn(C4CCCC4)c3n2)cc1 [Example 457]
hCDK1/B
  IC50: > 10 µM
[1]; [3]
  IC50: > 10 µM
CDK4
  IC50: > 10 µM

## CN(C)C(=O)c1cc2cnc(Nc3ccc(N4CCN(C(=O)OC(C)(C)C)CC4)cc3)nc2n1C1CCCC1 [Example 463]
hCDK1/B
  IC50: < 10 µM
[1]; [3]
  IC50: < 10 µM
CDK4
  IC50: < 1 µM

## CCC(CC)n1c(C(=O)N(C)C)cc2cnc(Nc3ccc(CN4CCN(C(=O)OC(C)(C)C)CC4)cc3)nc21 [Example 465]
hCDK1/B
  IC50: < 10 µM
[1]; [3]
  IC50: < 10 µM
CDK4
  IC50: < 1 µM

## CN(C)C(=O)c1cc2cnc(NCc3ccc(N4CCN(C(=O)OC(C)(C)C)CC4)cc3)nc2n1C1CCCC1 [Example 468]
hCDK1/B
  IC50: > 15 µM
[1]; [3]
  IC50: > 15 µM
CDK4
  IC50: > 10 µM

## Cc1cn(C2CCCC2)c2nc(Nc3ccc(N4CCNCC4)cc3)ncc12 [drawing 150]
[2]; Table C, read-out: CDK4 IC50
  IC50: < 10 µM

## CCC(CC)N1C(=O)C(C)(C)c2cnc(Nc3ccc(N4CCNCC4)cc3)nc21 [drawing 162]
[2]; Table C, read-out: CDK4 IC50
  IC50: < 10 µM

Source: patent publication US20120207763A1, “PYRROLOPYRIMIDINE COMPOUNDS AND THEIR USES” (ASTEX THERAPEUTICS LIMITED, priority 2006, published 2012)
